Source: patent publication US5445951A, “Regioselective enzymatic deacylation of sucrose esters in anhydrous organic media” (priority 1993, dated 1995)
Read-outs that look alike come from different tables or passages of the source.

What was measured:
lipase AP 12 = assay: Solvent effect on lipase AP 12 catalyzed deacetylation of SOA; assay type: biochemical, Aspergillus niger; settings: lipase AP 12, solvent as labelled, 24 hrs
Description: (§1) Identical enzyme catalyzed SOA deacetylations were run in numerous anhydrous solvents. After 24 hrs incubation an aliquot was analyzed by HPLC.
(§2) The pH of commercial powdered enzymes was adjusted in the following way: The enzyme (3 g) was dissolved in 25 ml of an appropriate buffer and the pH adjusted with dilute NaOH or citric/phosphoric acid solution. Cold acetone (37.5 ml at -20° C.) was added and the precipitate collected on a medium porosity glass funnel and dried overnight at 2 millitorr. The protein pellet was ground to a fine powder and equilibrated at 4° C. over saturated aqueous potassium carbonate (RH: 43%) for 24 hrs.
(§3) Enzyme and Solvent Screening for SOA Deacetylation. A scintillation vial was charged successively with 100 mg of powdered enzyme as received or prepared as described and 1.0 ml of 20 mM sucrose octaacetate (SOA) dissolved in an organic solvent. Following a 5 sec sonication, the vial was incubated in a controlled-temperature shaker at 45° C. and 300 RPM for 24 hrs. A 200 μl aliquot of the reaction mixture was withdrawn and centrifuged. The supernatant was collected and evaporated under a stream of N2. The residue was reconstituted in 200 μl of acetonitrile and 10 μl of this solution was analyzed by HPLC.

lipase AY 30 [1] = assay: Effect of the solvent on lipase AY 30 SOA deacetylation; assay type: biochemical, Candida cylindracea; settings: lipase AY 30, solvent as labelled, 24 hrs
Description: as §1, §3

proleather = assay: Solvent effect on proleather catalyzed deacetylation of SOA; assay type: biochemical, Bacillus subtilis; settings: 24 hrs; for SheptaA: total of 1'-OH and 6'-OH heptaacetates; for SOA / ShexaA: solvent as labelled
Description: as §1, §2, §3

lipase AY 30 [2] = assay: Effect of the solvent on lipase AY 30 catalyzed deacylation of SOP; assay type: biochemical, Candida cylindracea; settings: for ShexaP (4.2 min) / SheptaP's (8.9 min) / SheptaP's (9.4 min) / SheptaP's ([…]): lipase AY 30, 24 hrs; for ShexaP (4.2 min): HPLC peak 4.2 min; for SheptaP's (8.9 min): HPLC peak 8.9 min; for SheptaP's (9.4 min): HPLC peak 9.4 min; for SheptaP's ([…]): HPLC peak […]; for SOA: lipase AY 30, solvent as labelled, 200 mM butanol, 24 hrs, peak 21.4 min; as to SheptaP's ([…]): HPLC peak 8.2 min
Description: Identical SOP deacylations were performed with lipase AY 30 or protease type XXIII in numerous anhydrous organic solvents, as shown in Tables 12 and 13.
as §3, with “Solvent” for “Enzyme and Solvent”, “screening” for “Screening”, “SOP deacylation.” for “SOA Deacetylation.”, “lipase AY 30” for “powdered enzyme as received”, “protease type XXIII” for “prepared”, “octapropionate (SOP) and 200mM butanol” for “octaacetate (SOA)”

alcalase = biological target: T1, alcalase (Bacillus licheniformis, UniProt P00780); assay: Solvent effect on alcalase catalyzed deacetylation of SOA; assay type: biochemical; settings: 24 hrs; for SheptaA: total of 1'-OH and 6'-OH heptaacetates; for SOA / ShexaA: solvent as labelled
T1 construct: purchased Novo Nordisk (gift)
T1 sequence (P00780 106-379): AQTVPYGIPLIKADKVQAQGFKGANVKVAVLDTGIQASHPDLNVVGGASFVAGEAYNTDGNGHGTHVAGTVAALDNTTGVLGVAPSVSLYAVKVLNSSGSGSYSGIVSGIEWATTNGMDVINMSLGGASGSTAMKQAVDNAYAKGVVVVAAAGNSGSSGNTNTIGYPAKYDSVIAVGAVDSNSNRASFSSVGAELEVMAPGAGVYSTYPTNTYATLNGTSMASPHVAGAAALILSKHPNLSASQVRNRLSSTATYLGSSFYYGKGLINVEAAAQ
Description: as §1
Enzyme Precipitation. Alcalase was prepared by adding 37.5 ml cold acetone (-20° C.) to 25 ml of alcalase solution as supplied by Novo. The aqueous acetone was decanted and the residue dissolved in 25 ml of pH 9.0 glycine--NaOH buffer. The pH of this solution was adjusted to 9.0 with a few drops of dilute NaOH solution. Cold acetone (37.5 ml at -20° C.) was added to the buffered alcalase solution and the precipitate collected by filtration on a medium porosity glass funnel and dried overnight at 2 millitorr. The resulting pellet was ground to a fine powder and stored at 4° C. over saturated aqueous potassium carbonate (RH: 43%) for 24 hrs.
as §3

[3] = test system: lipase AY 30 deposited on Hyflo Super Cell; assay: Solvent effect on lipase AY 30 deposited on Hyflo Super Cell catalyzed deacetylation of SOA; assay type: biochemical, Candida cylindracea; settings: immobilized lipase AY 30, 24 hrs
Description: (§4) Alcalase and lipase AY 30 were deposited on Hyflo Super Cell and used as catalysts for SOA deacetylation reactions in several anhydrous solvents.
(§5) Enzyme immobilization. The pH of a solution of 900 mg of buffered alcalase in 18 ml of water was adjusted to 9.0 with dilute NaOH. Hyflo super cell (6 g) was added and the slurry thoroughly mixed. […] Lipase AY 30 was immobilized in the same manner except that the protein solution was adjusted to pH 7.0 with sodium phosphate.
as §3

[4] = test system: alcalase deposited on Hyflo Super Cell; assay: Solvent effect on alcalase deposited on Hyflo Super Cell catalyzed deacetylation of SOA; assay type: biochemical, Bacillus licheniformis; settings: immobilized alcalase, 4 hour incubation; for SheptaA: total of 1'-OH and 6'-OH heptaacetates
Description: as §4, §5
as §3, with “Following a 5 sec sonication, the vial was incubated in a controlled-temperature shaker at 45° C. and 300 RPM for 24 hrs.” left out

[5] = n-octanol/water, cited from earlier work

| Compound | SOA (lipase AY 30 [1]) [%] | SheptaA (lipase AY 30 [1]) [%] | ShexaA (lipase AY 30 [1]) [%] | SheptaA (proleather) [%] | ShexaA (proleather) [%] | ShexaP (4.2 min) (lipase AY 30 [2]) [%] | SheptaP's (8.9 min) (lipase AY 30 [2]) [%] | SheptaP's (9.4 min) (lipase AY 30 [2]) [%] | SheptaP's ([…]) (lipase AY 30 [2]) [%] | SOA (lipase AY 30 [2]) [%] | SheptaA (alcalase) [%] | SOA (alcalase) [%] | ShexaA (alcalase) [%] | SOA [3] [%] | SheptaA [3] [%] | SOA [4] [%] | ShexaA [4] [%] | SheptaA [4] [%] | log P ([5]; from Laane et al.) | further results |
| --- | --- | --- | --- | --- | --- | --- | --- | --- | --- | --- | --- | --- | --- | --- | --- | --- | --- | --- | --- | --- |
| Cc1ccccc1 [toluene] | 78.7 | 16.5 | 4.8 | 15.2 | 2.0 | 0.2 | 0 | 1.2 | 1.3 | 97.3 | 6.0 | 93.8 | 0.2 | 94.5 | 5.5 | 97.8 | 0 | 2.2 |  | SOA (lipase AP 12): 94.2%; SheptaA (lipase AP 12): 5.8%; ShexaA (lipase AP 12): 0%; SOA (proleather): 82.8% |
| CCC(C)(C)OC [t-amyl methyl ether] | 45 | 37.1 | 17.9 |  |  |  |  |  |  |  |  |  |  |  |  |  |  |  | 1.9 |  |
| CCOC(C)(C)C [t-butyl ethyl ether] | 40.8 | 38.1 | 21.1 | 2.8 | 0 |  |  |  |  |  |  |  |  |  |  |  |  |  | 1.9 |  |
| c1ccccc1 [benzene] | 97.9 | 1.7 | 0.4 | 13.9 | 1.4 |  |  |  |  |  | 6.7 | 93.3 | 0 | 97.9 | 2.1 | 97.9 | 0 | 2.1 |  | SOA (lipase AP 12): 96.6%; SheptaA (lipase AP 12): 3.4%; ShexaA (lipase AP 12): 0%; SOA (proleather): 84.8% |
| CCCCCOCCCCC [dipentyl ether] |  |  |  |  |  |  |  |  |  |  |  |  |  |  |  |  |  |  | 3.9 |  |
| CCCCC(=O)CC [3-heptanone] | 85.1 | 14.9 |  |  |  | 0 | 0.8 | 2.9 | 3.3 | 93.0 |  |  |  |  |  |  |  |  | 1.8 |  |
| CCCCOC(C)=O [n-butyl acetate] | 95.2 | 4.6 | 0.4 | 16.5 | 2.2 | 0 | 0 | 0.7 | 1.4 | 97.9 | 2.4 | 97.6 | 0 | 97.6 | 2.4 |  |  |  | 1.7 | SOA (lipase AP 12): 97.6%; SheptaA (lipase AP 12): 2.4%; ShexaA (lipase AP 12): 0%; SOA (proleather): 81.3% |
| CCCCOCC [butyl ethyl ether] | 73.9 | 21.4 | 4.7 |  |  |  |  |  |  |  | 16.9 | 81.4 | 1.7 | 96.0 | 4.0 | 97.8 | 0 | 2.2 | 1.9 | SOA (lipase AP 12): 81.6%; SheptaA (lipase AP 12): 16.3%; ShexaA (lipase AP 12): 2.1% |
| ClC(Cl)Cl [chloroform] | 86.7 | 11.6 | 1.7 |  |  |  |  |  |  |  |  |  |  |  |  |  |  |  |  |  |
| CCCCCC [hexane] |  |  |  |  |  | 5.8 | 0.6 | 5.7 | 8.6 | 79.3 |  |  |  |  |  |  |  |  | 3.5 |  |
| COC(C)(C)C [t-butyl methyl ether] | 61.6 | 28.8 | 9.6 | 24.4 | 3.2 | 0.8 | 0.3 | 5.9 | 4.3 | 88.7 | 6.8 | 92.6 | 0.6 | 96.0 | 4.0 | 97.3 | 0 | 2.7 | 1.3 | SOA (proleather): 72.4% |
| CC(=O)OC(C)(C)C [t-butyl acetate] |  |  |  |  |  |  |  |  |  |  |  |  |  |  |  | 98.2 | 0 | 1.8 | 1.7 |  |
| C1CCOC1 [THF, tetrahydrofuran] | 98.7 | 1.3 | 0 | 2.6 | 0 | 0.3 | 0 | 0.1 | 1.6 | 98.0 | 2.0 | 98.0 | 0 | 98. | 2.0 | 97.3 | 0 | 2.7 |  | SOA (lipase AP 12): 98.4%; SheptaA (lipase AP 12): 1.6%; ShexaA (lipase AP 12): 0%; SOA (proleather): 97.4% |
| O=C1CCCCC1 [cyclohexanone] | 97.5 | 2.5 | 0 |  |  | 0 | 0 | 0.3 | 0.9 | 98.8 |  |  |  |  |  |  |  |  | 0.96 |  |
| CCCCCCC [heptane] |  |  |  |  |  | 6.6 | 0.5 | 4.4 | 8.9 | 79.6 |  |  |  |  |  |  |  |  | 4.0 |  |
| C1CCCCC1 [cyclohexane] |  |  |  |  |  | 2.8 | 0.4 | 5.2 | 5.6 | 86 |  |  |  |  |  |  |  |  |  |  |
| CCCCCCCCO [octanol] |  |  |  |  |  | 0 | 0 | 1.1 | 1.8 | 97.1 |  |  |  |  |  |  |  |  |  | log P [5]: 3.0 |
| CCCCCCCC [octane] |  |  |  |  |  | 7.7 | 0.5 | 2.9 | 8.9 | 80.0 |  |  |  |  |  |  |  |  | 5.0 |  |
| CCCCCCCO [heptanol] | 93.4 | 6.0 | 0.6 |  |  | 0 | 0 | 0.7 | 1.4 | 97.9 |  |  |  |  |  |  |  |  | 2.5 |  |
